Test results reported in PubChem BioAssay (NCI).
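Method: 48-hour compound exposure of cells in 96-well plates, five concentrations, linear interpolation of endpoints. TGI is the concentration that stops growth completely.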

Tests used:
Experiment in all cases: NCI tumour cell line growth inhibition, 48 h
SNB-75 CNS = test system: SNB-75 CNS
HCT-15 colon = test system: HCT-15 colon
NCI-H23 lung = test system: NCI-H23 lung
T-47D breast = test system: T-47D breast
UACC-257 melanoma = test system: UACC-257 melanoma
SN12C renal = test system: SN12C renal
CAKI-1 renal = test system: CAKI-1 renal
SK-MEL-5 melanoma = test system: SK-MEL-5 melanoma
UACC-62 melanoma = test system: UACC-62 melanoma
MCF7 breast = test system: MCF7 breast
MDA-N = test system: MDA-N
SF-295 CNS = test system: SF-295 CNS
SNB-19 CNS = test system: SNB-19 CNS

Row | Compound | TGI (SNB-75 CNS) [µM] | TGI (HCT-15 colon) [µM] | TGI (NCI-H23 lung) [µM] | TGI (T-47D breast) [µM] | TGI (UACC-257 melanoma) [µM] | TGI (SN12C renal) [µM] | TGI (CAKI-1 renal) [µM] | TGI (SK-MEL-5 melanoma) [µM] | TGI (UACC-62 melanoma) [µM] | TGI (MCF7 breast) [µM] | TGI (MDA-N) [µM] | TGI (SF-295 CNS) [µM] | TGI (SNB-19 CNS) [µM]
1 | CN(C)N1C(=O)S/C(=C\c2ccc([N+](=O)[O-])cc2)C1=O | 98.7 | > 100 | > 100 | > 100 | > 100 | > 100 | > 100 | > 100 | > 100 | > 100 | > 100 | > 100 | 
2 | O=C1O[C@H]2[C@H](OC(=O)c3cc(O)c(O)c(O)c3)[C@@H](OC(=O)c3cc(O)c(O)c4c3[C@@H]3C1=CC(=O)C(O)(O)C3(O)O4)[C@H](OC(=O)c1cc(O)c(O)c(O)c1)O[C@@H]2COC(=O)c1cc(O)c(O)c(O)c1 (stereo partly specified) | > 100 | > 100 | > 100 | > 100 | > 100 | > 100 | > 100 | > 100 | > 100 | > 100 | > 100 | > 100 | > 100
3 | CCOP(=O)(OCC)C(NC(=O)C(C(F)(F)F)C(F)(F)F)c1ccccc1 (stereo unspecified) | > 100 | > 100 | > 100 | > 100 | > 100 | > 100 | > 100 | > 100 | > 100 | > 100 | > 100 | > 100 | > 100
4 | CCCSc1ccc2[nH]c(N3C(=O)/C(=C/c4ccc(SC)cc4)N=C3c3ccccc3)cc2c1 | > 50 | > 50 | > 50 | > 50 | > 50 | > 50 | > 50 | > 36.3 | > 50 | > 50 | 17.5 | > 50 | > 50
5 | O=C(NNC(=S)NC1CCCCC1)C12CC3CC(CC(C3)C1)C2 | > 100 | > 100 | > 100 | > 100 | > 100 | > 100 | > 100 | > 100 | > 100 | > 100 | > 100 | > 100 | > 100
6 | N[C@@H]1CCN(c2c(F)cc3c(=O)c(C(=O)O)cn4c3c2Oc2cc3c(ccc5ccccc53)cc2-4)C1 | > 100 | > 100 | > 100 | 31.3 |  | > 100 | > 77.5 | > 40 | 26.7 | > 100 | > 100 | > 100 | > 100
7 | C=C1C(=O)O[C@H]2C1C[C@@H](OC(C)=O)/C(C)=C/CC[C@@]1(C)O[C@H]21 (stereo partly specified) | 62.7 | 22.9 | 37.2 | 21.5 | 19.6 | 29.2 | 22.1 | 18.4 | 15.6 | 23.4 | 18.7 | 50.9 | 78
8 | CC(=O)OCC1OC(n2c3c(c(-c4ccc(Cl)cc4)c(C#N)c2=S)CCCC3)C(OC(C)=O)C(OC(C)=O)C1OC(C)=O (stereo unspecified) | 79.6 | > 100 | > 100 | > 100 | > 100 | > 100 |  | 58.6 | 75.1 | > 100 | > 100 | > 100 | > 100
9 | CCCCCc1c(CCCC)c(=O)[nH]c2nc(NC(=O)CCCC)ccc12 | > 100 | > 100 | > 100 | > 100 | > 100 | > 100 | > 100 | > 100 |  | > 100 | > 100 | > 100 | > 100
10 | COc1ccc(-c2c3c(n(C4OC(CO)C(O)C(O)C4O)c(=S)c2C#N)CCCC3)cc1 (stereo unspecified) | 18.7 | > 100 | > 100 | > 100 | > 100 | > 100 | > 100 | > 100 | > 100 | > 100 | > 100 | > 100 | 
11 | NC1CCC(N(CC(=O)O)CC(=O)O)C(N(CC(=O)O)CC(=O)O)C1 (stereo unspecified) | > 100 | > 100 | > 100 | > 100 |  | > 100 | > 100 | > 100 | > 100 | > 100 | > 100 | > 100 | > 100
12 | CC(Nc1ccc(Cl)c(Cl)c1)c1ccncc1 (stereo unspecified) | 97.7 | > 100 | > 100 | > 100 | > 100 | > 100 | 97.8 | 30.3 |  | > 100 | 66.6 | 64.2 | > 100
13 | Cc1ccc(C)n2c1nc1ccccc12 | > 100 | > 100 | > 100 | > 100 | > 100 | > 100 |  | > 100 | > 100 | > 100 | > 100 | > 100 | > 100
